In patent publication EP1785417A2, “Novel non-psychotropic cannabinoids” (priority 2000, dated 2001):
Where two headings read alike, the source gives them in different places.

Legend:
NMDA receptor = assay: Radioligand binding: displacement of [3H]MK-801 from rat forebrain membranes; conditions: for NMDA receptor binding / affinity: MK-801 binding to membranes
Text: (§1) Evaluation of the therapeutic effects of the novel PRS-211 compounds has now been carried out in a series of experimental systems to support the utility of these drugs as neuroprotectants, anti-inflammatory agents and anti-oxidative agents. These effects have been evaluated both in vitro and in vivo, and have been corroborated utilizing the following systems: • (a) Binding to the NMDA receptor linked channel: Non competitive antagonists of NMDA, the primary example of which is the compound MK-801, bind to a site within the NMDA receptor channel thus preventing the activation of the receptor-channel complex and the consequent neurotoxicity. The ability of various compounds to compete with the binding of tritium labeled MK-801 to brain membranes is considered a measure of their potency as NMDA non-competitive antagonists. • (b) Inhibition of prostaglandin production: The inhibitory effect of the new derivatives of Dexanabinol on prostaglandin synthesis is evaluated in macrophage cell cultures following LPS exposure to induce the inflammatory response. These assays are an indication of the anti-inflammatory activity of the individual analogs. • (c) Inhibition of Tumor Necrosis Factor Alpha: Specific aspects of the inflammatory response cascade are mediated by the cytokine TNFα. Inhibition of TNFα production and/or inhibition of TNFα release by the new analogs are assayed in macrophage cell cultures activated with LPS. This serves as another indication of the general anti-inflammatory potential of the novel compounds. • (d) Nitric Oxide Assay: As one aspect of the anti-oxidative potential of the novel analogs they were tested for their ability to inhibit the enzyme nitric oxide synthase (NOS). This assay can also serve as another indication of the anti-inflammatory cascade, as well as the anti-oxidative mechanisms. • (e) Ear Edema model: The anti-inflammatory activity of the new analogs is screened using an ear edema model in mice. This test system utilizes Croton oil or Arachidonic acid as inflammation inducers. The ability of the test compounds to prevent or diminish the inflammatory response to these stimulants is indicative of their systemic anti-inflammatory capability. • (f) Improved clinical outcome after closed head injury in rats: Severe head injury is associated with high mortality and severe neurological impairment. Animals subjected to head trauma in a controlled fashion serve as models in which to test drugs of therapeutic potential. Test compounds can be evaluated both for improved clinical outcome and for reduction of edema induced by closed head injury. The ability of compounds to reduce the severity of neurological symptoms and to reduce brain edema is considered a measure of their potency in reducing brain damage. • (g) Transient Middle cerebral artery occlusion (MCAo): The middle cerebral artery is the cerebral blood vessel most susceptible to stroke in humans. In animals, coagulation, permanent ligation or permanent placement of an occluding thread in the artery produces a permanent focal stroke affecting the MCA territory. Transient ligation or occlusion results in transient focal stroke. Both transient and permanent focal strokes result in varying degrees of edema and infarction in the affected brain regions. The ability of compounds to reduce the volumes of edema and infarction is considered a measure of their potential as anti-stroke treatment. • (h) Optic Nerve Crush: Application of mechanical pressure to the rat optical nerve results in crush injury of the axons, which is accompanied by immediate changes in oxidative metabolism and delayed axonal death and blindness. […]

PGE2 = assay: Inhibition of prostaglandin synthesis (PGE2) in LPS-stimulated macrophage cell cultures; type: cell-based; conditions: LPS-stimulated macrophages
Text: as §1

TNFα = assay: Inhibition of TNFα in LPS-stimulated macrophage cell cultures (ELISA); type: cell-based; conditions: LPS-stimulated macrophages
Text: as §1

[1] = tested on: Nitric Oxide Synthase (NOS); assay: Inhibition of nitric oxide synthase (nitrite fluorimetric assay, LPS-stimulated macrophage cultures); type: cell-based; conditions: LPS-stimulated macrophages
Text: as §1

ear edema model in mice = assay: Ear edema model; type: in vivo; conditions: Mus musculus, Croton oil (CO) as inducer, IP
Text: as §1

[2] = tested on: transient middle cerebral artery occlusion in rats; assay: Transient middle cerebral artery occlusion (MCAo), infarct size evaluation; type: in vivo; conditions: for Mortality rate: 5 mg/kg IV at 2+0 hours
Text: Experimental design. The design was a randomized one, performed in a masked fashion as to whether drug or vehicle was being given, and an attempt was made to generate approximately equal numbers of drug- and vehicle-treated animals.
• a. Male rats (8 /treatment group) 320-380 gr. (Harlan Israel). • b. Halothane (Rhone Poulenc France) • c. Pentobarbitone (Pental Veterinary, CTS Israel). • d. Poly - L - Lysine (Sigma, USA). • e. Silk suture material 3-0 and 4-0. • f. Nylon (Polyamid) suture material 3-0. Four cm pieces were cut and positioned in a solution of 1% Poly - L - Lysine for 1 minute and dried in an oven (60 ° C) for 60 minutes. The tip of each piece was rounded under a flame. • g. Saline (Teva Medical). • h. Blank cremophor ethanol cosolvent (Pharmos). • i. Dexanabinol in cremophor ethanol cosolvent 50 mg/ml. (Both Dexanabinol and its vehicle were diluted in saline prior to drug administration. • j. Analogs PRS-211,092, PRS-211,095, PRS-211,128 PRS-211,132 and PRS-211,220 in cremophor ethanol cosolvent, 50 mg/ml. • k. The analogs were diluted in saline prior to drug administration.
• a. Surgical details of the MCAo method used for testing dexanabinol analogs, are presented in Belayev, et al., (Belayev, Busto, Weizhao, and Ginsberg, Stroke 26:2313-2319, 1995) which is incorporated herein in its entirety by reference. • b. Two hours after the start of MCAO, the animals were reanesthetized with halothane, the neck wound was re-opened and the nylon thread pulled out of the Internal carotid artery (ICA). The skin wound was then closed with 3-0 silk suture material and the animals allowed to recover from the anesthesia. • c. Three sets of animals were tested. In the first test immediately (2+0 hours) before thread removal the animals were injected IV with either analogs PRS-211,095, PRS-211,128, PRS-211,132, or Dexanabinol (PRS-211,007) each at a dosage of 5 mg/kg. One group of animals was treated with 5ml/kg vehicle alone. In another group, the animals subjected to "sham" operation, the suture was passed into the ICA, as described above, but immediately withdrawn. In the second set dexanabinol, PRS-211,092, PRS-211,095 and PRS-211,220 were used, at 2+0 hours. In the third set dexanabinol, PRS-211,092, PRS-211,095 and PRS-211,220 were administered 1 hour after thread removal (2+1 hours). Laser Doppler Flow (LDF) determined the success of MCAo - a drop of more then 50% in cerebral blood flow was considered as a sign of successful MCAo. Although LDF was a helpful corroborative sign, clinical outcome remained the final inclusion/exclusion criterion, since, with the exception of the PRS-211,220 staircase study, LDF was introduced only after initiation of the study.
A detailed investigation of neurological performance was carried out on the first, third and the 7th day after the MCAo. Two parameters were examined: posture and the flexion reflex (based on Nokon and Chuang, NeuroReport 9, 1998: 2081-2084). Animals were scored according to their performance:
One week after the ischemic insult, animals were euthanized with pentobarbitone 100 mg/kg IP. The animals were perfused through the heart with heparinized 4% formaldehyde solution in PBS (pH 7.4). Brains were then removed, and kept in the same solution before preparation for histological evaluation of the brain infarct volume.

[3] = displacement of [3H]MK-801, rat forebrain membranes, read-out: NMDA BINDING IC50
[4] = [3H]MK-801 binding, text to Figure 2, read-out: mean IC50

Row | Structure (SMILES) | IC50 (NMDA receptor; [3]) [µM] | inhibition at 10 µM (PGE2) [%] | inhibition at 10 µM (TNFα) [%] | NMDA receptor binding / affinity (NMDA receptor) | inhibition at 10 µM [1] [%] | ED50 (ear edema model in mice) [µmol/kg] | reduction of infarct size ([2]; IV, one week after the ischemic insult) [%] | IC50 (NMDA receptor; [4]) [µM] | function, reduction of mortality and brain morphometry [2] | Mortality rate [2]
1 | CCCCCCC(C)(C)c1cc(O)c2c(c1)OC(C)(C)[C@H]1CC=C(CNC(C)=O)C[C@H]21 [211,044-000] | 6 | 24 | 0 |  |  |  |  |  |  | 
2 | CCCCCCC(C)(C)c1cc(O)c2c(c1)OC(C)(C)[C@H]1CC=C(CN(Cc3ccccc3)c3ccccc3)C[C@H]21 [211,255-000] | > 100 | 94 | 0 | do not exhibit substantial NMDA receptor binding | 7 |  |  |  |  | 
3 | CCCCCCC(C)(C)c1cc(O)c2c(c1)OC(C)(C)[C@H]1CC=C(CN3CCNCC3)C[C@H]21 [211,133-000] | > 100 |  |  |  |  |  |  |  |  | 
4 | CCCCCCC(C)(C)c1cc(O)c2c(c1)OC(C)(C)[C@H]1CC=C(CN3CCC(N4CCCCC4)CC3)C[C@H]21 (single isomer, unassigned) [211,257-000] | > 100 | 88 | 10 | do not exhibit substantial NMDA receptor binding | 39 |  |  |  |  | 
5 | CCCCCCC(C)(C)c1cc(O)c2c(c1)OC(C)(C)[C@H]1CC=C(CN3CCN=C3SC)C[C@H]21 [211,204-000] | 10 | 83 | 28 |  | 85 | 34 | 50 |  |  | 
6 | CCCCCCC(C)(C)c1cc(O)c2c(c1)OC(C)(C)[C@H]1CC=C(CN3CCC(C)CC3)C[C@H]21 (single isomer, unassigned) [211,251-000] | > 100 | 91 | 0 | do not exhibit substantial NMDA receptor binding | 37 |  |  |  |  | 
7 | CCCCCCC(C)(C)c1cc(O)c2c(c1)OC(C)(C)[C@H]1CC=C(C[S+](C)[O-])C[C@H]21 (stereo partly drawn) [211,041-000] | 6 | 56 | 23 |  | 72 | 39 |  |  |  | 
8 | CCCCCCC(C)(C)c1cc(O)c2c(c1)OC(C)(C)[C@H]1CC=C(CN3CC=CC3)C[C@H]21 [211,212-000] | 7.5 | 96 | 14 |  | 0 |  |  |  |  | 
9 | CC(C)(C)c1cc(O)c2c(c1)OC(C)(C)[C@H]1CC=C(CO)C[C@H]21 [211,047-000] | 100 | 28 | 0 |  |  |  |  |  |  | 
10 | CCCCCCC(C)(C)c1cc(O)c2c(c1)OC(C)(C)[C@H]1CC=C(Cc3ccccc3)C[C@H]21 [211,119-000] | 62 | 14 |  |  |  |  |  |  |  | 
11 | CCCCCCC(C)(C)c1cc(O)c2c(c1)OC(C)(C)[C@H]1CC=C(CN3CCCC3)C[C@H]21 (stereo in doubt) [211,128-000] | > 20 | 84 | 48 | no detectable affinity | 27 | 23 |  | > 20 | inactive | around 25%
12 | CCCCCCC(C)(C)c1cc(O)c2c(c1)OC(C)(C)[C@H]1CC=C(CN3CCC(N4CCCC4)CC3)C[C@H]21 [211,253-000] | > 100 | 92 | 0 | do not exhibit substantial NMDA receptor binding | 27 |  |  |  |  | 
13 | CCCCCCC(C)(C)c1cc(O)c2c(c1)OC(C)(C)[C@H]1CC=C(Cc3cccs3)C[C@H]21 [211,118-000] | 32 |  |  |  |  |  |  |  |  | 
14 | CCCCCCC(C)(C)c1cc(O)c2c(c1)OC(C)(C)[C@H]1CC=C(CN3CCNC(C)C3)C[C@H]21 (stereo partly drawn) [211,134-000] | > 100 |  |  |  |  |  |  |  |  | 
15 | CCCCCCC(C)(C)c1cc(O)c2c(c1)OC(C)(C)[C@H]1CC=C(CN3CC=CCC3)C[C@H]21 [211,145-000] | 13 | 63 | 15 |  | 60 |  |  |  |  | 
16 | CCCCCCC(C)(C)c1cc(O)c2c(c1)OC(C)(C)[C@H]1CC=C(COCC(O)CO)C[C@H]21 (stereo partly drawn) [211,211-000] | 4.6 | 83 | 18 |  | 0 |  |  |  |  | 
17 | CCCCCCC(C)(C)c1cc(O)c2c(c1)OC(C)(C)[C@H]1CC=C(CN3CCOCC3)C[C@H]21 [211,132-000] | 4.5 | 61 | 21 |  | 40 | 70 |  | 4.5 |  | around 25%
18 | CCCCCCC(C)(C)c1cc(O)c2c(c1)OC(C)(C)[C@H]1CC=C(Cn3cnnc3)C[C@H]21 [211,103-000] | 3 |  |  |  |  |  |  |  |  | 
19 | CCCCCCC(C)(C)c1cc(O)c2c(c1)OC(C)(C)[C@H]1CC=C(CN3CCCCC3)C[C@H]21 (stereo in doubt) [211,159-000] | > 20 | 87 | 33 |  | 27 |  |  |  |  | 
20 | CCCCCCC(C)(C)c1cc(O)c2c(c1)OC(C)(C)[C@H]1CC=C(CC#N)C[C@H]21 [211,006-000] | 8 | 41 | 46 |  | 19 | 104 |  |  |  | 
21 | CCCCCCC(C)(C)c1cc(O)c2c(c1)OC(C)(C)[C@H]1CC=C(Cn3cncn3)C[C@H]21 [211,102-000] | 2.5 |  |  |  |  |  |  |  |  | 
